This is an account of results in patent publication US10517244B2, “Method to develop herbicide-resistant sugar beet plants” (priority 2012, dated 2019).

Like-named read-outs stand apart in the source and are kept apart here.

The subject of series [1] is regenerated sugar beets having the mutated SEQ.ID.NO:3 (heterozygote). The series is classed as in vivo, sugar beet. To be noted: Foramsulfuron 12.5 g/ha, amidosulfuron 15 g/ha, iodosulfuron 3.5 g/ha, thiencarbazone-methyl 7.5 g/ha, up to 3 applications. An excerpt:
(§1) The inventors compared the behaviour of regenerated sugar beets having the mutated SEQ.ID.NO:3 (heterozygote for this mutation) and a wild-type (naive) sugar beet commercial variety.

For series [2], the system named is sugar beet plants where the tryptophan at position 569 of the ALS enzyme is substituted by a leucine (Line B). The experiment in a line: Greenhouse trial, damage (phytotoxicity) rating after ALS inhibitor treatment, Line B. The settings on record: day 14 after application at stage BBCH 14; scale 0% no damage to 100% completely killed; g/ha per herbicide. The series is classed as in vivo, Beta vulgaris L. ssp. vulgaris. An excerpt:
(§2) Uwe Meier, Biologische Bundesanstalt für Land und Forstwirtschaft. Subsequently, the resulting separate groups of sugar beet plants were each individually treated with an ALS inhibitor (ALS-in) in the amounts (g/ha) indicated in Table 2.
(§3) On day 14 after application of the respective ALS inhibitor, the damage (i.e. the phytotoxicity) for each sugar beet plant was rated on a scale from 0% (i.e. no damage, no phytotoxicity) to 100% (i.e. the plants were completely killed).

Series [3] deals with traditional variety (wild-type) sugar beet plants (Line WT). The experiment in a line: Greenhouse trial, damage (phytotoxicity) rating after ALS inhibitor treatment, Line WT. The settings on record: day 14 after application at stage BBCH 14; scale 0% no damage to 100% completely killed; g/ha per herbicide. Type of series: in vivo, Beta vulgaris L. ssp. vulgaris.
Description: as §2, §3

The subject of series [4] is dual mutant plant comprising SEQ.ID.NO:3 and SEQ.ID.NO:5 (NCIMB 42050). The series is classed as in vivo, sugar beet. The settings on record: even when put in composition with organic compounds; compatible with field application. An excerpt:
The inventors then developed a mutated sugar beet plant comprising SEQ.ID.NO:3 and SEQ.ID.NO:5 (on two different alleles). Such resulting dual mutant has been deposited under the Budapest Treaty under NCIMB 42050. A plant comprising both SEQ.ID.NO:3 and SEQ.ID.NO:5 can be generated by relying on several techniques, including, for instance, a subsequent mutagenesis step applied to the single mutant NCIMB 42051.
The inventors then compared the resistance of this dual mutant plant (a mutation in one allele at amino acid 569 and a mutation in the other allele at amino acid 188) with the single mutant (a mutation at position 569) sugar beet.

Series [5] has as its system sugar beet plants comprising SEQ.ID.NO:3 and SEQ.ID.NO:5 on two different alleles (Line A). Put plainly: Greenhouse trial, damage (phytotoxicity) rating after ALS inhibitor treatment, Line A. The series is classed as in vivo, Beta vulgaris L. ssp. vulgaris. The procedure:
Mutated sugar beet plants comprising SEQ.ID.NO:3 and SEQ.ID.NO:5 (on two different alleles) according to the present invention (as described in Example 4 above, “Line A”) were treated with different ALS inhibitors in direct comparison with sugar beet plants where the tryptophan at position 569 of the encoded ALS enzyme is substituted by a leucine (“Line B”), sugar beet plants described in WO 98/02527 where the proline at position 188 of the encoded ALS enzyme is substituted by a serine (“Line C”), and traditional variety (wild-type) sugar beet plants not having a mutation at positions 569 and 188 (“Line WT”).
Several groups of seeds of the four different mentioned sugar beet plants were sown separately in the greenhouse and grew up to stage BBCH 14 for Beta vulgaris L. ssp. vulgaris (i.e. 4 leaves (the second pair) unfolded) according to the monographie “Entwicklungsstadien mono-und dikotyler Pflanzen”, 2nd edition, 2001, ed. Uwe Meier, Biologische Bundesanstalt für Land und Forstwirtschaft. Subsequently, the resulting separate groups of sugar beet plants were each individually treated with an ALS inhibitor (ALS-in) in the amounts (g/ha) indicated in Table 2.
as §3
Additionally, typical early phenotypes of each sugar beet plants were inspected after treatment with a mixture comprising thiencarbazone-methyl and foramsulfuron.

Series [6] deals with wild-type (naive) sugar beet commercial variety. Put plainly: ALS inhibitor treatment of wild-type sugar beets (Example 3). The series is classed as in vivo. To be noted: Foramsulfuron 12.5 g/ha, amidosulfuron 15 g/ha, iodosulfuron 3.5 g/ha, thiencarbazone-methyl 7.5 g/ha.
Description: as §1

The test system of series [7] is sugar beet plants where the proline at position 188 of the ALS enzyme is substituted by a serine (Line C). The experiment in a line: Greenhouse trial, damage (phytotoxicity) rating after ALS inhibitor treatment, Line C. The settings on record: day 14 after application at stage BBCH 14; scale 0% no damage to 100% completely killed; g/ha per herbicide. Type of series: in vivo, Beta vulgaris L. ssp. vulgaris.
Description: as §2, §3

Series [8] deals with stomatal guard cell protoplasts. The experiment in a line: Protoplasts viability under mutagenesis treatment. The series is classed as cell-based, sugar beet. To be noted: treatment of more than 0.2% EMS. An excerpt: Possibly, this method further comprises the step of adding a mutagen agent to the culture of the isolated stomatal guard cell protoplasts.
Suitable mutagen agents are physical (such as UV or X-ray) exposure or exposure to chemical agents (such as Ethyl Methane Sulfonate (EMS), for instance at 0.05%, 0.1%, 0.15%, 0.2% or even at 2.5%).

In series [9] the test system is homozygote 569/569 mutant sugar beet. The settings on record: WO 2012/049268; cited from earlier work.
Series [10] relates to sugar beet mutant with proline at position 188 of ALS substituted by a serine. The settings on record: at the necessary dose rate; WO 98/02527 mutant; cited from earlier work.
The mark [11] stands for this setting: day 14 after application at stage BBCH 14, scale 0% no damage to 100% completely killed, g/ha per herbicide.

For `COC(=O)c1csc(C)c1S(=O)(=O)NC(=O)n1nc(OC)n(C)c1=O` [Thiencarbazone-methyl], in [1], the “resistance of the (heterozygote) mutated variety to the herbicide” value was “about the same level of resistance as for iodosulfuron”. The “damage (phytotoxicity) average rating, Line B” value (from here on “damage … Line B”) in [2] worked out at 35.6%. Further, in [3], the “damage (phytotoxicity) average rating, Line WT” value (from here on “damage … Line WT”) is on record as 84.4%. Besides, in [4], the “resistance of the dual mutant plant line to the herbicide” value is recorded as “good resistance”. In addition, in series [5] (setting [11]), the “damage (phytotoxicity) average rating, Line A” value (shortened to “damage … Line A”) is reported as 8.1%. For the same compound, the “sensitivity of the wild-type (naive) plant to the herbicide” value in series [6] is listed as “very sensitive”. The “damage (phytotoxicity) average rating, Line C” value (shortened to “damage … Line C”) in series [7] was 37.5%.

For `CCOS(C)(=O)=O` [EMS, Ethyl Methane Sulfonate], the protoplasts viability result in series [8] was “detrimentally affected”.

As to `COc1cc(OC)nc(NC(=O)NS(=O)(=O)c2cc(NC=O)ccc2C(=O)N(C)C)n1` [Foramsulfuron], the figures for the “resistance of the (heterozygote) mutated variety to the herbicide” value in [1] and in [1] (listed as foramsulfuron) were “good resistance” and “best resistance”, respectively. For the same compound, in series [2], the “damage … Line B” value is given as 45.6%. For the same compound, the “damage … Line WT” value in series [3] came to 80.0%. In addition, in series [9], the “resistance of homozygote 569/569 mutant in field trials” value is given as “good resistance”. For the same compound, in [5] (setting [11]), the “damage … Line A” value was determined as 26.9%. The “phytotoxicity in field trials on proline 188 serine mutant” value in series [10] was “some phytotoxicity”. Further, the “damage … Line C” value in series [7] was 77.5%.

With `COc1cc(OC)nc(Oc2cccc(Oc3nc(OC)cc(OC)n3)c2C(=O)[O-])n1.[Na+]` [Bisbyribac-Na], in series [2], the “damage … Line B” value worked out at 38.1%. In [3], the “damage … Line WT” value was 80.0%. Besides, the “damage … Line A” value in [5] (setting [11]) came out at 17.5%. Further, the “damage … Line C” value in [7] is 71.7%.

For the compound `COc1cc(OC)nc(NC(=O)NS(=O)(=O)N(C)S(C)(=O)=O)n1` [Amidosulfuron], the “resistance of the (heterozygote) mutated variety to the herbicide” value in series [1] is “same level of resistance”. Moreover, the “damage … Line B” value in [2] came to 37.5%. For the same compound, the “damage … Line WT” value in series [3] came to 73.1%. Besides, in series [4], the “resistance of the dual mutant plant line to the herbicide” value is “good resistance”. For the same compound, the “damage … Line A” value in series [5] (in vivo) stood at 6.3%. Moreover, the “damage … Line C” value in series [7] is given as 51.9%.

On to `COc1cc(OC)n2nc(S(=O)(=O)Nc3c(Cl)ccc(C)c3Cl)nc2n1` [Metosulam], for which the “damage … Line B” value in series [2] came out at 40.6%. In addition, the “damage … Line WT” value in [3] came to 79.4%. In [5] (setting [11]), the “damage … Line A” value is listed as 13.1%. In addition, the “damage … Line C” value in [7] amounted to 69.4%.
